From patent publication US10988459B2 (priority 2015, dated 2021) come the findings set out here.

The target of this assay is human RIP1 kinase domain (2-375) (Homo sapiens (Human), UniProt Q13546). As to the kind of experiment: biochemical. In kind it is biochemical. To be noted: 50 uM ATP. In outline:
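50 nM purified kinase domain from baculovirus-infected insect cells, incubated 2 h with compound in 50 mM Hepes pH 7.5, 30 mM MgCl2, 1 mM DTT, 50 uM ATP, 0.002% Brij-35, 0.5% DMSO. ADP formation read by Transcreener FP at 633 nm excitation. Ki^app fitted with the Morrison tight-binding equation.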

The mark [1] stands for this setting: tight-binding apparent inhibition constant, human RIP1 kinase domain (2-375) 50 nM, 2 hours, read-out: Ki.
[2] abbreviates: human RIP1 kinase domain (2-375), Transcreener ADP assay, 2 hours incubation, read-out: RIP1 Ki.
Setting [3] is: Table 5, apparent Ki (Morrison tight-binding fit), 50 nM RIP1 kinase domain, 2 hours incubation, read-out: Ki.
[4] abbreviates: human RIP1 kinase domain (2-375), 2 hours incubation, Transcreener ADP assay, read-out: RIP1 Ki.

The structures appear in SMILES notation. Like-named read-outs stand apart in the source and are kept apart here.

Sequence of human RIP1 kinase domain (2-375) (Q13546 2-375): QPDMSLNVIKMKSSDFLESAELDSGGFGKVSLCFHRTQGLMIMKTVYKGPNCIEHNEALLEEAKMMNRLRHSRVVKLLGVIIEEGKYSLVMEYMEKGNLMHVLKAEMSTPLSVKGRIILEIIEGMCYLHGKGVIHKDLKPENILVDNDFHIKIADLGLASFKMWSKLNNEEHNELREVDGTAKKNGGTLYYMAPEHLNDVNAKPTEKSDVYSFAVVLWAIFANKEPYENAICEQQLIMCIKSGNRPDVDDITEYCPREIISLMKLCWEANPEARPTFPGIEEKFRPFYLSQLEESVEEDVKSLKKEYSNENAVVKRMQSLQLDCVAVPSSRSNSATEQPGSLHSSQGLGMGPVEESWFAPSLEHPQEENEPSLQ

In the case of `Cc1cc2n(n1)CC[C@H](NC(=O)c1nc3n(n1)CCC31CCOCC1)C(=O)N2C` [Example 635, N-[(6S)-2,4-dimethyl-5-oxo-7,8-dihydro-6H-pyrazolo[1,5-a][1,3]diazepin-6-yl]spiro[5,6-dihydropyrrolo[1,2-b][1,2,4]triazole-7,4′-tetrahydropyran]-2-carboxamide], the Ki under setting [1] was 7300 nM.
As to `CC12Cc3[nH]nc(C(=O)N[C@H]4CCc5cc(Cl)ccc5NC4=O)c3CC1C2` (stereo partly drawn) [Example 50, N-((S)-7-chloro-2-oxo-2,3,4,5-tetrahydro-1H-benzo[b]azepin-3-yl)-5a-methyl-1,4,4a,5,5a,6-hexahydrocyclopropa[f]indazole-3-carboxamide], the Ki (Table 1, apparent Ki (Morrison tight-binding fit), 50 nM RIP1 kinase domain, 2 hours incubation, read-out: RIP1 Ki) amounted to 3900 nM.
As to `CN1C(=O)[C@@H](NC(=O)c2ncc3c(n2)[C@@](C)(CC(F)(F)F)OC3)COc2ccccc21` (racemic) [Example 691, rac-(7R)-7-methyl-N-[rac-(3S)-5-methyl-4-oxo-2,3-dihydro-1,5-benzoxazepin-3-yl]-7-(2,2,2-trifluoroethyl)-5H-furo[3,4-d]pyrimidine-2-carboxamide], under setting [1], the Ki was found to be 22.8 nM.
For the compound `CN1C(=O)[C@@H](NC(=O)c2nnc(Cc3ccc(F)cc3)[nH]2)CCn2nc(C3CC3)cc21` [Example 332, (S)—N-(2-cyclopropyl-4-methyl-5-oxo-5,6,7,8-tetrahydro-4H-pyrazolo[1,5-a][1,3]diazepin-6-yl)-5-(4-fluorobenzyl)-4H-1,2,4-triazole-3-carboxamide], the Ki under setting [2] stood at 88 nM.
With `C=C(C)c1cc2n(n1)CCC(NC(=O)c1ncn(Cc3ccccc3)n1)C(=O)N2C` (racemic) [Example 365, 1-benzyl-N-(2-isopropenyl-4-methyl-5-oxo-7,8-dihydro-6H-pyrazolo[1,5-a][1,3]diazepin-6-yl)-1,2,4-triazole-3-carboxamide], the Ki under setting [1] was determined as 31.1 nM.
Regarding `Cc1cc2n(n1)CC[C@H](NC(=O)c1ncn(CC3CC(C)C3)n1)C(=O)N2C` (stereo in doubt) [Example 491, 1-[(3-methylcyclobutyl)methyl]-N-(6S)-2,4-dimethyl-5-oxo-7,8-dihydro-6H-pyrazol[1,5-a][1,3]diazepin-6-yl-1,2,4-triazole-3-carboxamide], under setting [1], the Ki is 37 nM.
`CN1C(=O)[C@@H](NC(=O)c2ncn(Cc3ccccc3)n2)CCn2nc(CCN3CCC3)cc21` [Example 756]: the Ki under setting [3] stood at 623 nM.
For `CN1C(=O)[C@@H](NC(=O)c2nnn(Cc3ccccc3)n2)CCn2nc(C3CC3)cc21` [Example 542], under setting [1], the Ki was 6.4 nM.
As to `Cc1nn2c(c1C)N(C)C(=O)[C@@H](NC(=O)c1ncn(Cc3cccc(F)c3F)n1)CC2` [Example 272, (S)-1-(2,3-difluorobenzyl)-N-(2,3,4-trimethyl-5-oxo-5,6,7,8-tetrahydro-4H-pyrazolo[1,5-a][1,3]diazepin-6-yl)-1H-1,2,4-triazole-3-carboxamide], under setting [2], the Ki was 45.2 nM.
Take `CC(C)n1ncc2cnc(C(=O)N[C@H]3COc4ccccc4N(C)C3=O)cc21` [Example 213, (S)-1-isopropyl-N-(5-methyl-4-oxo-2,3,4,5-tetrahydrobenzo[b][1,4]oxazepin-3-yl)-1H-pyrazolo[4,3-c]pyridine-6-carboxamide]: the Ki under setting [4] worked out at 12.3 nM.
Turning to `Cc1cc2n(n1)CC[C@H](NC(=O)c1ncn(Cc3cccc(Cl)c3)n1)C(=O)N2C` [Example 521, 1-[(3-chlorophenyl)methyl]-N-(6S)-2,4-dimethyl-5-oxo-7,8-dihydro-6H-pyrazolo[1,5-a][1,3]diazepin-6-yl-1,2,4-triazole-3-carboxamide], the Ki under setting [1] came to 6.9 nM.
As to `COCCNCc1cc2n(n1)CC[C@H](NC(=O)c1ncn(Cc3ccccc3)n1)C(=O)N2C` (single isomer, unassigned) [Example 728], under setting [3], the Ki came out at 225 nM.
For the compound `CN1C(=O)[C@@H](NC(=O)c2nc3n(n2)CC[C@@H]3c2ccccc2)COc2ccccc21` [Example 573, (7R)-7-phenyl-N-[(3S)-5-methyl-4-oxo-2,3-dihydro-1,5-benzoxazepin-3-yl]-6,7-dihydro-5H-pyrrolo[1,2-b][1,2,4]triazole-2-carboxamide], under setting [1], the Ki was determined as 17 nM.
Regarding `CC(C)c1cccc2nc(C(=O)N[C@H]3CCc4cc(F)cc(F)c4NC3=O)nn12` [Example 420, (S)—N-(7,9-difluoro-2-oxo-2,3,4,5-tetrahydro-1H-benzo[b]azepin-3-yl)-5-isopropyl-[1,2,4]triazolo[1,5-a]pyridine-2-carboxamide], under setting [1], the Ki was found to be 4.71 nM.
Regarding `Cc1cc2n(n1)CC[C@H](NC(=O)c1ncn(Cc3ccccc3Cl)n1)C(=O)N2C` [Example 520, 1-[(2-chlorophenyl)methyl]-N-(6S)-2,4-dimethyl-5-oxo-7,8-dihydro-6H-pyrazolo[1,5-a][1,3]diazepin-6-yl-1,2,4-triazole-3-carboxamide], the Ki under setting [1] is 6 nM.
On to `Cn1cc(C2CCCc3nc(C(=O)N[C@H]4CCc5cc(F)cc(F)c5NC4=O)nn32)cn1` (stereo partly drawn) [Example 433, N—((S)-7,9-difluoro-2-oxo-2,3,4,5-tetrahydro-1H-benzo[b]azepin-3-yl)-5-(1-methyl-1H-pyrazol-4-yl)-5,6,7,8-tetrahydro-[1,2,4]triazolo[1,5-a]pyridine-2-carboxamide], for which, under setting [1], the Ki was found to be 143 nM.
In the case of `Cn1cc(-c2cccc3nc(C(=O)N[C@H]4COc5cc(F)cc(F)c5NC4=O)nn23)cn1` [Example 421, (S)—N-(6,8-difluoro-4-oxo-2,3,4,5-tetrahydrobenzo[b][1,4]oxazepin-3-yl)-5-(1-methyl-1H-pyrazol-4-yl)-[1,2,4]triazolo[1,5-a]pyridine-2-carboxamide], under setting [1], the Ki amounted to 15.9 nM.
For the compound `CN1C(=O)[C@H](NC(=O)c2ncn(Cc3ccc(F)cc3)n2)CCn2nc([C@H]3CC3(F)F)cc21` [Example 318, N—((R)-2-((R)-2,2-difluorocyclopropyl)-4-methyl-5-oxo-5,6,7,8-tetrahydro-4H-pyrazolo[1,5-a][1,3]diazepin-6-yl)-1-(4-fluorobenzyl)-1H-1,2,4-triazole-3-carboxamide], the Ki under setting [2] was found to be 25.3 nM.
As for `CC1CCn2cnc(C(=O)N[C@H]3COc4ccccc4N(C)C3=O)c2C1` (stereo partly drawn) [Example 190], under setting [4], the Ki was found to be 262 nM.
With `CN1C(=O)[C@@H](NC(=O)c2ncn(Cc3ccc(Cl)cc3)n2)CCn2nc(C(F)(F)F)cc21` [Example 532], the Ki under setting [1] came out at 24 nM.
Consider `CC(C)Cn1cc(-c2cc3n(n2)CCC(NC(=O)c2ncn(Cc4ccccc4)n2)C(=O)N3C)cn1` (racemic) [Example 699, 1-benzyl-N-[2-(1-isobutylpyrazol-4-yl)-4-methyl-5-oxo-7,8-dihydro-6H-pyrazolo[1,5-a][1,3]diazepin-6-yl]-1,2,4-triazole-3-carboxamide], for which the Ki under setting [3] amounted to 53 nM.
With `CN1C(=O)[C@@H](NC(=O)c2nc3n(n2)[C@H](c2c(F)cccc2F)CCC3)CCn2nccc21` (racemic) [Example 400, (S)-5-(2,6-difluorophenyl)-N—((S)-4-methyl-5-oxo-5,6,7,8-tetrahydro-4H-pyrazolo[1,5-a][1,3]diazepin-6-yl)-5,6,7,8-tetrahydro-[1,2,4]triazolo[1,5-a]pyridine-2-carboxamide], the Ki under setting [1] stood at 834 nM.
In the case of `CC(C)[C@@H]1CCc2nc(C(=O)N[C@H]3CCn4nccc4N(C)C3=O)nn21` (single isomer, unassigned) [Example 353], under setting [1], the Ki is 49.8 nM.
As to `CC[C@@]1(C)OCc2cc(C(=O)NC3CCn4nc(-c5ccccc5)cc4N(C)C3=O)ncc21` (stereo partly drawn) [Example 264, (3R)-3-ethyl-3-methyl-N-(4-methyl-5-oxo-2-phenyl-5,6,7,8-tetrahydro-4H-pyrazolo[1,5-a][1,3]diazepin-6-yl)-1,3-dihydrofuro[3,4-c]pyridine-6-carboxamide], the Ki under setting [2] stood at 232 nM.
With `CN1C(=O)[C@@H](NC(=O)c2ncn(Cc3cccc(Cl)c3Cl)n2)CCn2nc(C(F)(F)F)cc21` [Example 534], the Ki under setting [1] came to 7.6 nM.
Consider `CN1C(=O)[C@H](NC(=O)c2ncn(Cc3ccccc3F)n2)CCn2cncc21` [Example 599, 1-[(2-fluorophenyl)methyl]-N-(3R)-1-methyl-2-oxo-4,5-dihydro-3H-imidazo[1,5-a][1,3]diazepin-3-yl-1,2,4-triazole-3-carboxamide], for which, under setting [1], the Ki worked out at 35 nM.
Turning to `CN1C(=O)[C@@H](NC(=O)c2nnc(Cc3cccc(F)c3F)[nH]2)CCn2nccc21` [Example 99, (S)-5-(2,3-difluorobenzyl)-N-(4-methyl-5-oxo-5,6,7,8-tetrahydro-4H-pyrazolo[1,5-a][1,3]diazepin-6-yl)-4H-1,2,4-triazole-3-carboxamide], the Ki under setting [4] came to 34.6 nM.
For the compound `CN1C(=O)[C@@H](NC(=O)c2ncn(Cc3ccccc3)n2)CCn2nc(C3CC3)cc21` [Example A, (S)-1-benzyl-N-(2-cyclopropyl-4-methyl-5-oxo-5,6,7,8-tetrahydro-4H-pyrazolo[1,5-a][1,3]diazepin-6-yl)-1H-1,2,4-triazole-3-carboxamide], the Ki (scale-up batches (Examples A-C), apparent Ki (Morrison tight-binding fit), 50 nM RIP1 kinase domain, read-out: Ki) was found to be 16 nM.
On to `CN1C(=O)[C@@H](NC(=O)c2ncn(Cc3ccccc3)n2)CCn2nc(CC3CC3)cc21` [Example 459, (S)-1-benzyl-N-(2-(cyclopropylmethyl)-4-methyl-5-oxo-5,6,7,8-tetrahydro-4H-pyrazolo[1,5-a][1,3]diazepin-6-yl)-1H-1,2,4-triazole-3-carboxamide], for which the Ki under setting [1] stood at 7 nM.
In the case of `CN1C(=O)[C@@H](NC(=O)c2ncn(Cc3ccccc3Cl)n2)CCn2nc(C3CC3)cc21` [Example 522], the Ki under setting [1] turned out to be 3.5 nM.
